Assay results: PubChem BioAssay (NCI)
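Method: 48-hour compound exposure of cells in 96-well plates, five concentrations, linear interpolation of endpoints. GI50 marks 50% less growth. TGI: concentration producing complete growth inhibition.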

Legend:
Assay in all cases: inhibition of tumour cell growth, NCI panel, 48 h
LOX IMVI melanoma = tested on: LOX IMVI melanoma
HCT-15 colon = tested on: HCT-15 colon
NCI-H23 lung = tested on: NCI-H23 lung
HT29 colon = tested on: HT29 colon
NCI-H522 lung = tested on: NCI-H522 lung
KM12 colon = tested on: KM12 colon
SNB-19 CNS = tested on: SNB-19 CNS
HCC-2998 colon = tested on: HCC-2998 colon
MCF7 breast = tested on: MCF7 breast
HOP-62 NSCLC = tested on: HOP-62 NSCLC

SMILES | TGI (LOX IMVI melanoma) | TGI (HCT-15 colon) | TGI (NCI-H23 lung) | TGI (HT29 colon) | TGI (NCI-H522 lung) | TGI (KM12 colon) | TGI (SNB-19 CNS) | TGI (HCC-2998 colon) | TGI (MCF7 breast) | TGI (HOP-62 NSCLC) | GI50 (LOX IMVI melanoma) | GI50 (HCT-15 colon) | GI50 (HCC-2998 colon) | GI50 (NCI-H23 lung) | GI50 (HT29 colon) | GI50 (NCI-H522 lung) | GI50 (KM12 colon) | GI50 (HOP-62 NSCLC) | GI50 (SNB-19 CNS) | GI50 (MCF7 breast)
Cc1cc2c(=O)cc(-c3ccc(Cl)cc3)oc2c(C(=O)O)c1C | > 100 µM | > 100 µM | > 100 µM | > 100 µM | > 100 µM | > 100 µM | > 100 µM |  |  |  |  |  |  |  |  |  |  |  |  | 
CC(=O)Nc1ccc(C(=O)N[C@@H]2C(=O)N3[C@@H]2SC(C)(C)[C@@H]3C(=O)O)cn1 | > 100 µM | > 100 µM | > 100 µM | > 100 µM |  | > 100 µM | > 100 µM | > 100 µM | > 100 µM | > 100 µM |  |  |  |  |  |  |  |  |  | 
Cc1c(Cl)cccc1NC(=O)C(=O)C1C(=O)NC(=O)NC1=O | > 100 µM | > 100 µM | > 100 µM | > 100 µM | > 100 µM | > 100 µM | > 100 µM | > 100 µM |  | > 100 µM |  |  |  |  |  |  |  |  |  | 
CC(CN(CP(=O)([O-])[O-])CP(=O)([O-])[O-])N(CP(=O)([O-])[O-])CP(=O)([O-])[O-].N[C@@H]1CCCC[C@@H]1N.[Pt+2] (centres undefined) | > 100 µM | > 100 µM | > 100 µM | > 100 µM | > 100 µM | > 100 µM | > 100 µM | > 100 µM |  | > 100 µM | > 100 µM | > 100 µM | > 100 µM | > 100 µM | > 100 µM | > 100 µM | > 100 µM | > 100 µM | > 100 µM | 
Cc1ccc(/C=C2\CCOC2=O)cc1 | > 100 µM | > 100 µM | > 100 µM | > 100 µM |  | > 100 µM | > 100 µM |  | > 100 µM | > 100 µM | > 100 µM | > 100 µM |  | > 100 µM | > 100 µM |  | > 100 µM | > 100 µM | > 100 µM | > 100 µM
Cc1c2c(nn1-c1ccc(S/N=C3\SCC(=O)CN3c3ccccc3)cc1)-c1ccccc1CC2 | 34.2 µM | > 50 µM | > 50 µM | > 50 µM | > 50 µM | > 50 µM | > 50 µM |  | 36.7 µM | 47.7 µM | 5.59 µM | 21.2 µM |  | 32.3 µM | 34.5 µM | 15.4 µM | 46.5 µM | 12.7 µM | > 50 µM | 7.79 µM
CCCCCCCCCCCCC(Br)C(=O)SCCNC(=O)CCNC(=O)[C@@H](O)C(C)(C)COP(=O)(O)OP(=O)(O)OCC1OC(n2cnc3c(N)ncnc32)C(O)C1OP(=O)(O)O (some centres undefined) | > 56.5 µM | > 56.5 µM | > 56.5 µM | > 56.5 µM | > 56.5 µM | > 56.5 µM | > 56.5 µM | > 56.5 µM |  | > 56.5 µM |  |  |  |  |  |  |  |  |  | 
COc1nc2c(nc(N)n2C2OC(CO)C(O)C(O)C2O)c(=O)n1C (centres undefined) | > 100 µM |  | > 100 µM | > 100 µM | > 100 µM | > 100 µM | > 100 µM | > 100 µM |  | > 100 µM |  |  |  |  |  |  |  |  |  | 
O=c1c2ccccc2nc(-c2ccc(Cl)cc2)n1O |  | > 100 µM | > 100 µM | > 100 µM | 57 µM | > 100 µM | > 100 µM |  | 63.4 µM | 91.2 µM |  |  |  |  |  |  |  |  |  | 
NCCOc1ccccn1 | > 100 µM | > 100 µM | > 100 µM | > 100 µM | > 100 µM | > 100 µM | > 100 µM |  | > 100 µM | > 100 µM |  |  |  |  |  |  |  |  |  | 
O=C(NC(=S)NS(=O)(=O)c1ccc(N2N=C3c4ccccc4CC3C2c2cccs2)cc1)c1ccccc1 (centres undefined) | 31.7 µM | > 100 µM |  | > 100 µM | 80.9 µM | 91.8 µM | > 100 µM |  | > 100 µM |  | 15.2 µM | 30.2 µM |  |  | 46 µM | 20.5 µM | 28.2 µM |  | 46.3 µM | > 100 µM
COc1ccc2c(CNCCCCO)cc3cc4c(cc3c2c1)OCO4 | 5.37 µM | 8.61 µM | 6.43 µM | 6.87 µM | 2.93 µM | 7.33 µM | 9.78 µM | 6.57 µM |  | 10.6 µM | 1.25 µM | 1.43 µM | 1.66 µM | 2.24 µM | 1.29 µM | 0.228 µM | 1.83 µM | 1.98 µM | 1.71 µM | 
CC(C)(C)c1ccccc1NS(=O)(=O)c1ccccc1 |  | > 100 µM | > 100 µM | > 100 µM |  | > 100 µM |  | > 100 µM |  | > 100 µM |  |  |  |  |  |  |  |  |  | 
CCOc1ccc(NC(=O)C2=C(C)NC(C)=C(C(=O)Nc3ccc(OCC)cc3)C2c2ccc([N+](=O)[O-])cc2)cc1 | > 100 µM |  | > 100 µM | 86 µM | > 100 µM | > 100 µM | > 100 µM | 52.7 µM |  | > 100 µM |  |  |  |  |  |  |  |  |  | 
CCCCCCCCCCCCCC(=O)OCC1OC(OC)C(NC(=O)N(CCCl)N=O)C(O)C1O (centres undefined) | 25.7 µM | > 100 µM | 28.6 µM | 50.4 µM |  | 64.4 µM | > 100 µM | 65.6 µM |  | 75.9 µM |  |  |  |  |  |  |  |  |  | 
CN(C)/[N+]([O-])=N/Oc1cc(Nc2ccc(C(=O)O)cc2)c([N+](=O)[O-])cc1[N+](=O)[O-] | 33.6 µM | 36.4 µM | 40.9 µM | > 100 µM | > 100 µM | 30.8 µM | 35.3 µM |  | 69.7 µM | 35 µM | 19 µM | 19.6 µM |  | 20.3 µM | 44.2 µM | 28.5 µM | 14.6 µM | 18 µM | 18.2 µM | 25.2 µM
Cc1cc(S(N)(=O)=O)c(S/C(=N\NS(=O)(=O)c2ccc(Cl)cc2)c2ccc(Cl)cc2)cc1Cl | > 100 µM | > 100 µM | > 100 µM |  | > 100 µM | > 100 µM | > 100 µM |  | > 100 µM | > 100 µM | > 100 µM | > 100 µM |  | 44.2 µM |  | > 100 µM | 70.6 µM | > 100 µM | > 100 µM | > 100 µM
